The subject of one data set is IKK kinase activity. The data set is described as follows: IKK kinase assay in MEF cells. In kind it is cell-based, mouse. Here is the method:
For MEF cells, 5.5×10^5 cells were seeded, then treated with compound for 6 hours and eventually stimulated with IL-1β or TNFα for 8 minutes. 1×10^6 Jurkat T-cells were treated with compound for 6 hours and finally stimulated with PMA (400 ng/ml) and lonomycin (600 ng/ml) for 8 minutes. After cell lysis in Co-IP lysis buffer (150 mM NaCl; 25 mM Hepes (pH 7.5); 0.2% NP-40; 1 mM Glycerol; 10 mM NaF; 8 mM β-Glycerophosphat; 1 mM DTT; 300 μM Sodium-vanadate; complete protease inhibitor), input samples were taken and the supernatant was then incubated with 6 μL IKKγ antibody FL-419 (Santa Cruz Biotechnology). Upon incubation with Protein-G-Sepharose beads (GE Healthcare), beads were washed in Co-IP wash buffer (150 mM NaCl; 25 mM Hepes (pH 7.5); 0.2% NP-40; 1 mM Glycerol) and transferred into kinase reaction buffer ([…] HEPES pH7.9; 10 mM MgCl2; 20 μM ATP; 20 mM β-Glycerophosphat; 200 μM Sodium-Vanadate; 1 mM DTT) supplemented with […] GST-IκBα (1-53) and 0.5 μL ^32P-γ-ATP. After 30 minutes incubation at 37° C., reaction was stopped and analyzed by autoradiography as well as Western Blot after separation on SDS-PAGE.

The test system of another data set is ICAM-1 and A20. Description: mRNA expression of NF-κB target genes in MEF cells. The class given is cell-based, mouse. Here is the method:
For MEF cells, 1.2×10^5 cells per sample were seeded, treated with compound for 6 hours and stimulated with either IL-1β or TNFα for 60 minutes. Jurkat T-cells and primary mouse CD4^+ T-cells were seeded at 2×10^5 cells per sample, also treated with compound for 6 hours and stimulated with PMA/lonomycin for 3 hours. RNA was isolated according to the manufacturer's protocol of the Qiagen RNeasy Kit (MEF cells) or the STRATEC INVITRAP® SPIN UNIVERSAL RNA MINI KIT (Jurkat T-cells). The isolation of mRNA from […] white adipose tissue from DIO mice was performed using TRIzol® Reagent according to manufacturer's instruction. To clear the isolated RNA from genomic DNA, samples (up to 5 μg RNA) were treated with RQ1 RNase-Free DNaseI (Promega) as described in the technical manual. For the reverse transcription of RNA into cDNA, the DNaseI digested RNA samples were processed using the SuperScript III First Strand cDNA Synthesis System (Invitrogen/ThermoFisher Scientific) following the manufacturer's protocol. […] For quantification of cDNA in the samples, the LightCylcer480 (Roche) and the KAPA SYBR FAST qPCR Kit were used. For relative quantification, the ΔΔCp method first described by Pfaffl (Pfaffl, M. W., A new mathematical model for relative quantification in real-time RT-PCR. Nucleic Acids Res, 2001. 29(9): p. e45) was applied.

The test system of a further data set is Caco-2 layer. Description: Caco-2 assay. The class given is in vitro ADME. As for the experimental part: (§1) All ADME (plasma stability, plasma protein binding, microsomal stability, Log D, Caco-2 assay, CYP450 inhibition and hERG predictor assay) as well as pharmacokinetic studies (Tmax, Cmax, AUC0-240 min, Mean Residence Time, Elimination half life, Elimination rate constant, Volume of Distribution and Clearance) of C25-140 (compound 3) were conducted by Bienta Enamine Biology Services of Bienta/Enamine Ltd.

Another data set concerns the target T1, ITCH (Homo sapiens, UniProt Q96J02).
T1 construct: purchased Boston Biochem one of K-102, K-260, K-200B, K-220, K-240, K-270
The data set is described as follows: In vitro ubiquitination assay, ITCH. Particulars: HECT E3 ligase. The class given is biochemical. As for the experimental part: (§2) For analysis of clAP1, MDM2, TRIM63, RNF4, ITCH and E6AP mediated poly-ubiquitination, the respective ubiquitin ligase kit from Boston Biochem (K-102, K-260, K-200B, K-220, K-240 and K-270) was used. Here, reaction buffer, E1, E2 and E3 enzyme (and p53 substrate in case of MDM2) were mixed and pre-incubated with compound or DMSO for 5 minutes at room temperature before adding Mg^2+-ATP and mono-ubiquitin for reaction start. Ubiquitination was visualized by Western Blot analyses.

Data set [1] relates to TRAF6 auto-ubiquitination. Description: Immunoprecipitation of TRAF6, endogenous ubiquitination in MEF cells. The class given is cell-based, mouse. As for the experimental part: 2.5×10^6 MEF cells were seeded, treated with compound for 6 hours and stimulated with IL-1β (3.5 ng/mL) for 10 minutes. Cells were lysed in Co-IP lysis buffer containing 1% SDS to eliminate all cellular interactions. After cell lysis and removal of input samples, the samples were diluted to 0.1% SDS and incubated with 5 μL TRAF6 antibody EP591Y (Abcam) and immunoprecipitated with Protein-G-Sepharose beads. After washing of the beads in Co-IP wash buffer, TRAF6 protein was eluted and levels of TRAF6 ubiquitination were detected by Western Blot analysis.

A further data set addresses T2, RNF4 (Homo sapiens, UniProt P78317).
T2 construct: purchased Boston Biochem one of K-102, K-260, K-200B, K-220, K-240, K-270
Description: In vitro ubiquitination assay, RNF4. In kind it is biochemical. As for the experimental part:
as §2

In another data set the test system is NF-κB. Description: EMSA NF-κB activation in Jurkat T-cells. The class given is cell-based, human. Conditions: PMA/Ionomycin. As for the experimental part: For compound treatment, MEF cells were seeded in 6 well plates at 1.2×10^5 cells/well the day before treatment. Jurkat T-cells were seeded directly before treatment at 2×10^5 cells/sample. Six hours after compound or DMSO treatment cells were stimulated as indicated. Thereby, MEF cells were left untreated or stimulated with recombinant mouse IL-1β (1 ng/mL) or TNFα (10 ng/mL) for 20 minutes. Jurkat T-cells were stimulated with Phorbol-12-myristat-13-acetet (PMA) (400 ng/mL) and lonomycin (600 ng/mL) for 30 minutes. Eventually, cells were lysed in high-salt lysis buffer (20 mM HEPES pH 7.9; 350 mM NaCl; 1 mM MgCl2; 0.5 mM EDTA; 0.1 mM EGTA; 20% Glycerol; 1% NP-40; 10 mM NaF; 8 mM β-Glycerophosphate; 1 mM DTT; 300 μM Sodium-vanadate; complete protease inhibitor) and analyzed in EMSA assays using H2K (NF-κB) or Oct-1 (loading control) probes.
(In general: A gel shift assay detects complexes by their altered migration in electrophoresis.)

Another data set deals with plasma protein. Description: Plasma protein binding. The class given is in vitro ADME. Here is the method:
as §1

Another data set can be described thus: Plasma stability. The class given is in vitro ADME. Here is the method: as §1
For data set [2], the target named is interaction of Ubc13 with Uev1a (Homo sapiens, UniProt P61088+Q13404). Description: Ubc13-Uev1a interaction. The class given is binding.

These results are taken from patent US11001591B2, “TRAF 6 inhibitors” (HELMHOLTZ ZENTRUM MUENCHEN—DEUTSCHES FORSCHUNGSZENTRUM FÜR …, priority 2016, dated 2021).

interaction of Ubc13 with Uev1a, sequence (P61088 whole entry): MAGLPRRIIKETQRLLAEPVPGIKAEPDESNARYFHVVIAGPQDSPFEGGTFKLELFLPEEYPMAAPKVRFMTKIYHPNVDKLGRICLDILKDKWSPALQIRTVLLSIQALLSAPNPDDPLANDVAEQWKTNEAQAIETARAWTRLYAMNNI
interaction of Ubc13 with Uev1a, sequence (Q13404 whole entry): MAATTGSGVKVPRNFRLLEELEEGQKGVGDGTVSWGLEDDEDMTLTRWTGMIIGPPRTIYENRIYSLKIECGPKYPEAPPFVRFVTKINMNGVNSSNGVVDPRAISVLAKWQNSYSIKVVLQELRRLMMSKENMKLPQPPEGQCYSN
T2 sequence (P78317 whole entry, species assumed): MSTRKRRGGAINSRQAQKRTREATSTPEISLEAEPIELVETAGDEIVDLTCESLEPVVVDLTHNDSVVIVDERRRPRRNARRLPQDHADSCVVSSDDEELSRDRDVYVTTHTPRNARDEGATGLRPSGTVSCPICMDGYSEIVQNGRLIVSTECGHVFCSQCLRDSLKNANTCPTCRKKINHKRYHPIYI
T1 sequence (Q96J02 whole entry): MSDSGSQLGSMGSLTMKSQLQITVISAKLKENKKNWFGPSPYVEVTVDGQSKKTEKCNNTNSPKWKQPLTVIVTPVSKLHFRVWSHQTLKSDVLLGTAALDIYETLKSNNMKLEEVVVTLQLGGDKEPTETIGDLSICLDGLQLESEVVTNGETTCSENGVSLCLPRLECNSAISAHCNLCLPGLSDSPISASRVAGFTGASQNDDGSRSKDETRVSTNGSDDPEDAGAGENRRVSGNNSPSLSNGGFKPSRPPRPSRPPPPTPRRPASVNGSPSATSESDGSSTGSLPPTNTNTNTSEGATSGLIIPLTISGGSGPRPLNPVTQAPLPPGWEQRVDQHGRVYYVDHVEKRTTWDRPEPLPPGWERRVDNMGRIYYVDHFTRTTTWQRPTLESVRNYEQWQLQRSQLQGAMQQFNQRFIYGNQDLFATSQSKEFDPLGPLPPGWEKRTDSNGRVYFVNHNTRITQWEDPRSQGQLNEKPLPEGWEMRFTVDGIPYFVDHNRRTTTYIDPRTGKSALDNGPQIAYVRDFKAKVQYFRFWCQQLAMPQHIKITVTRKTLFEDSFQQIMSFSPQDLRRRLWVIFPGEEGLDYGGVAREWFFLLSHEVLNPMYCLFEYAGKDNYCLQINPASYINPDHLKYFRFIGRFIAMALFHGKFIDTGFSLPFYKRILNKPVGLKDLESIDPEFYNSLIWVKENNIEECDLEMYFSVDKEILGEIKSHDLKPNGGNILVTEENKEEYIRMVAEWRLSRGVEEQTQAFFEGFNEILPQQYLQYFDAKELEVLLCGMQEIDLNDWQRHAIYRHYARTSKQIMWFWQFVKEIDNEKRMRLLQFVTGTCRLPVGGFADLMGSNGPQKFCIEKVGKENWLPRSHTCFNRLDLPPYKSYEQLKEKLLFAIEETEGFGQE

Regarding `Cc1nn(-c2ccc3nnc(C)n3n2)c(C)c1CCC(=O)N1CCC(Cc2ccccc2)CC1` [Compound 3, 1-(4-benzylpiperidin-1-yl)-3-(3,5-dimethyl-1-(3-methyl-[1,2,4]triazolo[4,3-b]pyridazin-6-yl)-1H-pyrazol-4-yl)propan-1-one], the “IKK kinase activity after IL-1β stimulation” value with IKK kinase activity is on record as “decreased”. Further, in the data set with IKK kinase activity (TNFα), the “TNFα induced phosphorylation of IκBα” value is on record as “also affected”. In addition, in the data set with ICAM-1 and A20, the “IL-1β-induced target gene expression (ICAM-1, A20 mRNA)” value is on record as “diminished”. For the same molecule, the “TNFα induced NF-κB target gene expression (ICAM-1, A20 mRNA)” value with ICAM-1 and A20 (TNFα) was “also affected”. Also, the Caco-2 permeability result with Caco-2 layer is “good penetration”. For the same molecule, at ITCH, the ITCH auto-ubiquitination result is given as “not affected”. Moreover, the “IL-1β-induced TRAF6 auto-ubiquitination” value in data set [1] is “reduced”. The RNF4 auto-ubiquitination result at RNF4 is “not affected”. In addition, the NF-κB activation entry with NF-κB is reported as “attenuated”. The plasma protein binding entry in the data set on plasma protein was “decent good plasma protein binding capacity”. Besides, in the data set “Plasma stability”, the plasma stability entry is listed as “stable”. Further, the “binding of Ubc13 to Uev1a” value in [2] is reported as “did not affect”.
